Assay [1] relates to U937 cells. Put plainly: Cellular assay in U937 cells on cell death (necroptosis), TNFα/zVAD.fmk. It is filed as cell-based. Conditions: Homo sapiens, U-937, Table 2; read-out: U937 IC50. An outline of the steps:
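U937 cells with 100 ng/ml TNFα plus 50 μM zVAD.fmk (pre-addition suspension levels) received 10 compound concentrations (10 μM–0.26 nM or 1 μM–0.07 nM) for 18–24 h at 37 °C. Live cells were read by MTS formazan absorbance at 490 nm after 4 h. % inhibition is relative to the maximal value without TNFα/zVAD.fmk.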

In assay [2] the target is T1, hRIPK1 (aa 1-375) fusion protein (Homo sapiens, UniProt Q13546).
T1 construct: hRIPK1 (aa 1-375) fusion protein
T1 sequence (Q13546 1-375): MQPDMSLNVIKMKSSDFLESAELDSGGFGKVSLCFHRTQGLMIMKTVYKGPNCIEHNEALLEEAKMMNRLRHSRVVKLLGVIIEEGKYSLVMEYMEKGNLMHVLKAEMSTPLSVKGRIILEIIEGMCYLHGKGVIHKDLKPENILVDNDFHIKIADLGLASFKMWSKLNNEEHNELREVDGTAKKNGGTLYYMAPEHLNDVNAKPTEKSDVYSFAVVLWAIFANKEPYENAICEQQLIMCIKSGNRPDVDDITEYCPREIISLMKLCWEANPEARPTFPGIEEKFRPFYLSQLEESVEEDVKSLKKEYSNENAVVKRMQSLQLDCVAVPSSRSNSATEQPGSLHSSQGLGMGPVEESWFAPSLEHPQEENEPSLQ
Put plainly: ADP-Glo kinase assay, RIPK1 autophosphorylation. The assay is classed as biochemical. Conditions: Table 1. A general note: ADP-Glo turns the ADP formed in a reaction into a luminescent signal.

The values that follow come from US12655139B2, “Isoxazolidines as RIPK1 inhibitors and use thereof” (SANOFI, priority 2020, dated 2026).

pIC50: −log10 of the molar value.

On to `N#Cc1nc(N2CCC(C(=O)N3OCC[C@H]3c3cnccn3)CC2)ncc1F` [compound 120, 5-fluoro-2-[4-[(3S)-3-pyrazin-2-ylisoxazolidine-2-carbonyl]-1-piperidyl]pyrimidine-4-carbonitrile], for which the negative logarithm of the IC50 (pIC50) (as a rule, the IC50 on a negative log10 scale, so that one unit is a factor of ten) was 8.77 in assay [1] and 7.73 in assay [2].

As to `NC(=O)c1ccnc(N2CCC(F)(C(=O)N3OCC[C@H]3c3cnccn3)C(F)(F)C2)n1` (stereo partly drawn) [compound 122, 2-[3,3,4-trifluoro-4-[(3S)-3-pyrazin-2-ylisoxazolidine-2-carbonyl]-1-piperidyl]pyrimidine-4-carboxamide], the pIC50 in assay [1] is 7.35; in assay [2], 7.53.

As to `N#Cc1ccnc(N2CCC(F)(C(=O)N3OCC[C@H]3c3cnccn3)C(F)(F)C2)n1` (stereo partly drawn) [compound 124, 2-[3,3,4-trifluoro-4-[(3S)-3-pyrazin-2-ylisoxazolidine-2-carbonyl]-1-piperidyl]pyrimidine-4-carbonitrile], the pIC50 is 7.50 in assay [1] and 7.41 in assay [2].

On to `NC(=O)c1nc(N2CCC(F)(C(=O)N3OCC[C@H]3c3cncc(F)c3)CC2)ncc1F` [compound 126, (S)-5-fluoro-2-(4-fluoro-4-(3-(5-fluoropyridin-3-yl)isoxazolidine-2-carbonyl)piperidin-1-yl)pyrimidine-4-carboxamide], for which the negative-log IC50 (pIC50) was 7.40 in assay [1] and 7.60 in assay [2].

As for `Cc1ccc([C@@H]2CCON2C(=O)C2CCN(c3nccc(C#N)n3)CC2)cn1` [compound 127, (S)-2-(4-(3-(6-methylpyridin-3-yl)isoxazolidine-2-carbonyl)piperidin-1-yl)pyrimidine-4-carbonitrile], the pIC50 is 7.27 in assay [1] and 7.62 in assay [2].

Consider `N#Cc1cncc([C@@H]2CCON2C(=O)C2CCN(c3nc(Cl)ncc3F)CC2)c1` [compound 130, 5-[(3S)-2-[1-(2-chloro-5-fluoro-pyrimidin-4-yl)piperidine-4-carbonyl]isoxazolidin-3-yl]pyridine-3-carbonitrile], for which the pIC50 in assay [1] and in assay [2] was 7.65 in each case.

In the case of `Cc1cncc([C@@H]2CCON2C(=O)C2CCN(c3nccc(C#N)n3)CC2)c1` [compound 131, (S)-2-(4-(3-(5-methylpyridin-3-yl)isoxazolidine-2-carbonyl)piperidin-1-yl)pyrimidine-4-carbonitrile], the pIC50 in assay [1] is 7.47; in assay [2] it was 7.62.

With `Cc1cncc([C@@H]2CCON2C(=O)C2CCN(c3cc(C#N)ncn3)CC2)c1` [compound 133, (S)-6-(4-(3-(5-methylpyridin-3-yl)isoxazolidine-2-carbonyl)piperidin-1-yl)pyrimidine-4-carbonitrile], the pIC50 was 7.31 in assay [1] and 7.70 in assay [2].

Consider `Cc1cncc([C@@H]2CCON2C(=O)C2CCN(c3cc(C(N)=O)ncn3)CC2)c1` [compound 134, (S)-6-(4-(3-(5-methylpyridin-3-yl)isoxazolidine-2-carbonyl)piperidin-1-yl)pyrimidine-4-carboxamide], for which the pIC50 in assay [1] is 6.83; in assay [2] it was 7.38.

With `Cc1ncc([C@@H]2CCON2C(=O)C2CCN(c3nccc(C(N)=O)n3)CC2)cc1F` [compound 137, 2-[4-[(3S)-3-(5-fluoro-6-methyl-3-pyridyl)isoxazolidine-2-carbonyl]-1-piperidyl]pyrimidine-4-carboxamide], the negative logarithm of the IC50 (pIC50) in assay [1] is 7.78; in assay [2], 7.67.

For the molecule `Cc1ncc([C@@H]2CCON2C(=O)C2CCN(c3cc(C#N)ncn3)CC2)cc1F` [compound 138, (S)-6-(4-(3-(5-fluoro-6-methylpyridin-3-yl)isoxazolidine-2-carbonyl)piperidin-1-yl)pyrimidine-4-carbonitrile], the pIC50 is 7.01 in assay [1] and 7.55 in assay [2].

For the molecule `Cc1ncc([C@@H]2CCON2C(=O)C2CCN(c3cc(C(N)=O)ncn3)CC2)cc1F` [compound 139, 6-[4-[(3S)-3-(5-fluoro-6-methyl-3-pyridyl)isoxazolidine-2-carbonyl]-1-piperidyl]pyrimidine-4-carboxamide], the figures for the pIC50 in assay [1] and in assay [2] were 7.35 and 7.47, respectively.
